Measurements taken from patent publication EP0500835B1, “A NOVEL QUINOLONE CARBOXYLIC ACID DERIVATIVE” (DAEWOONG PHARMACEUTICAL CO., LTD., priority 1990, dated 1992).
Values after ≈ are worked out from the molar mass of the structure shown.

Assays:
Test in all cases: In vitro antibacterial activity, MIC by agar dilution method
Format in all cases: cell-based
E. cloacae P99 = details: Enterobacter cloacae, P99, read-out: In vitro Antibacterial Activity, MIC
Method: (§1) The typical examples of the present compounds were tested for antimicrobial activity in vitro against twenty strains of Gram-positive and Gram-negative microorganisms.
(§2) The minimum inhibitory concentrations were determined according to the agar dilution method recommended by Japan Society of Chemotherapy[Chemotherapy., 29, 76 (1981)].

S. typhimurium = details: Salmonella enterica, TYPHIMURIUM, read-out: In vitro Antibacterial Activity, MIC
Method: as §1, §2

E. coli O 55 = details: Escherichia coli, O55, read-out: In vitro Antibacterial Activity, MIC
Method: as §1, §2

K. aerogenes 1522E = details: Klebsiella aerogenes, 1522E, read-out: In vitro Antibacterial Activity, MIC
Method: as §1, §2

E. cloacae 1321E = details: Enterobacter cloacae, 1321E, read-out: In vitro Antibacterial Activity, MIC
Method: as §1, §2

S. faecium MD 86 = details: Enterococcus faecium, MD86, read-out: In vitro Antibacterial Activity, MIC
Method: as §1
(§3) The numerals in the table 1 show minimum inhibitory concentrations(MIC in µg/ml). The minimum inhibitory concentrations were determined according to the agar dilution method recommended by Japan Society of Chemotherapy[Chemotherapy., 29, 76 (1981)].

E. coli DC 2 = details: Escherichia coli, DC2, read-out: In vitro Antibacterial Activity, MIC
Method: as §1, §3

E. coli TEM = details: Escherichia coli, read-out: In vitro Antibacterial Activity, MIC
Method: as §1, §3

P. aeruginosa 1771 = details: Pseudomonas aeruginosa, 1771, read-out: In vitro Antibacterial Activity, MIC
Method: as §1, §3

K. oxytoca 1082E = details: Klebsiella oxytoca, 1082E, read-out: In vitro Antibacterial Activity, MIC
Method: as §1, §3

P. aeruginosa 1771M = details: Pseudomonas aeruginosa, 1771M, read-out: In vitro Antibacterial Activity, MIC
Method: as §1, §3

E. coli DC 0 = details: Escherichia coli, DC0, read-out: In vitro Antibacterial Activity, MIC
Method: as §1, §3

S. aureus 503 = details: Staphylococcus aureus, 503, read-out: In vitro Antibacterial Activity, MIC
Method: as §1, §3

E. coli 1507E = details: Escherichia coli, 1507E, read-out: In vitro Antibacterial Activity, MIC
Method: as §1, §3

P. aeruginosa 9027 = details: Pseudomonas aeruginosa, 9027, read-out: In vitro Antibacterial Activity, MIC
Method: as §1, §3

S. pyogenes A 77 = details: Streptococcus pyogenes, A77, read-out: In vitro Antibacterial Activity, MIC
Method: as §1, §3

P. aeruginosa 1592E = details: Pseudomonas aeruginosa, 1592E, read-out: In vitro Antibacterial Activity, MIC
Method: as §1, §3

S. pyogenes A 308 = details: Streptococcus pyogenes, A308, read-out: In vitro Antibacterial Activity, MIC
Method: as §1, §3

S. aureus SG 511 = details: Staphylococcus aureus, SG511, read-out: In vitro Antibacterial Activity, MIC
Method: as §1, §3

S. aureus 285 = details: Staphylococcus aureus, 285, read-out: In vitro Antibacterial Activity, MIC
Method: as §1, §3

Compound: CSCC1CCN(c2c(F)c(N)c3c(=O)c(C(=O)O)cn(C4CC4)c3c2F)C1 (stereo not drawn) [Example 9, 1-cyclopropyl-5-amino-6,8-difluoro-7-(3-methylthiomethylpyrrolidinyl)-1,4-dihydro-4-oxo-3-quinolinecarboxylic acid]
- MIC (E. cloacae P99): 0.049 µg/mL (≈ 0.12 µM)
- MIC (S. typhimurium): 0.049 µg/mL (≈ 0.12 µM)
- MIC (E. coli O 55): 0.013 µg/mL (≈ 0.0317 µM)
- MIC (K. aerogenes 1522E): 3.12 µg/mL (≈ 7.63 µM)
- MIC (E. cloacae 1321E): 0.049 µg/mL (≈ 0.12 µM)
- MIC (S. faecium MD 86): 1.2 µg/mL (≈ 2.92 µM)
- MIC (E. coli DC 2): 0.195 µg/mL (≈ 0.476 µM)
- MIC (E. coli TEM): 0.025 µg/mL (≈ 0.0611 µM)
- MIC (P. aeruginosa 1771): 1.56 µg/mL (≈ 3.82 µM)
- MIC (K. oxytoca 1082E): 1.56 µg/mL (≈ 3.82 µM)
- MIC (P. aeruginosa 1771M): 0.781 µg/mL (≈ 1.91 µM)
- MIC (E. coli DC 0): 3.12 µg/mL (≈ 7.63 µM)
- MIC (S. aureus 503): 0.007 µg/mL (≈ 0.0171 µM)
- MIC (E. coli 1507E): 0.025 µg/mL (≈ 0.0611 µM)
- MIC (P. aeruginosa 9027): 3.12 µg/mL (≈ 7.63 µM)
- MIC (S. pyogenes A 77): 0.391 µg/mL (≈ 0.955 µM)
- MIC (P. aeruginosa 1592E): 3.12 µg/mL (≈ 7.63 µM)
- MIC (S. pyogenes A 308): 0.195 µg/mL (≈ 0.476 µM)
- MIC (S. aureus SG 511): 0.004 µg/mL (≈ 0.00977 µM)
- MIC (S. aureus 285): 0.025 µg/mL (≈ 0.0611 µM)

Compound: CSCC1CCN(c2c(F)c(F)c3c(=O)c(C(=O)O)cn(C4CC4)c3c2F)C1 (stereo not drawn) [Example 3, 1-cyclpropyl-5,6,8-trifluoro-7-(3-methylthiomethylpyrrolidinyl)-1,4-dihydro-4-oxo-3-quinolinecarboxylic acid]
- MIC (E. cloacae P99): 0.391 µg/mL (≈ 0.948 µM)
- MIC (S. typhimurium): 0.391 µg/mL (≈ 0.948 µM)
- MIC (E. coli O 55): 0.195 µg/mL (≈ 0.473 µM)
- MIC (K. aerogenes 1522E): 0.781 µg/mL (≈ 1.89 µM)
- MIC (E. cloacae 1321E): 0.391 µg/mL (≈ 0.948 µM)
- MIC (S. faecium MD 86): 0.781 µg/mL (≈ 1.89 µM)
- MIC (E. coli DC 2): 3.12 µg/mL (≈ 7.58 µM)
- MIC (E. coli TEM): 3.12 µg/mL (≈ 7.58 µM)
- MIC (P. aeruginosa 1771): 1.56 µg/mL (≈ 3.79 µM)
- MIC (K. oxytoca 1082E): 0.098 µg/mL (≈ 0.238 µM)
- MIC (P. aeruginosa 1771M): 1.56 µg/mL (≈ 3.79 µM)
- MIC (E. coli DC 0): 6.25 µg/mL (≈ 15.2 µM)
- MIC (S. aureus 503): 0.007 µg/mL (≈ 0.017 µM)
- MIC (E. coli 1507E): 3.12 µg/mL (≈ 7.58 µM)
- MIC (P. aeruginosa 9027): 3.12 µg/mL (≈ 7.58 µM)
- MIC (S. pyogenes A 77): 1.56 µg/mL (≈ 3.79 µM)
- MIC (P. aeruginosa 1592E): 3.12 µg/mL (≈ 7.58 µM)
- MIC (S. pyogenes A 308): 0.781 µg/mL (≈ 1.89 µM)
- MIC (S. aureus SG 511): 0.008 µg/mL (≈ 0.0194 µM)
- MIC (S. aureus 285): 0.013 µg/mL (≈ 0.0315 µM)

Compound: CSCC1CCN(c2cc3c(cc2F)c(=O)c(C(=O)O)cn3C2CC2)C1 (stereo not drawn) [Example 1, 1-cyclopropyl-6-fluoro-7-(3-methylthiomethylpyrrolidinyl)-1,4-dihydro-4-oxo-3-quinolinecarboxylic acid]
- MIC (E. cloacae P99): 0.195 µg/mL (≈ 0.518 µM)
- MIC (S. typhimurium): 0.195 µg/mL (≈ 0.518 µM)
- MIC (E. coli O 55): 0.025 µg/mL (≈ 0.0664 µM)
- MIC (K. aerogenes 1522E): 0.391 µg/mL (≈ 1.04 µM)
- MIC (E. cloacae 1321E): 0.195 µg/mL (≈ 0.518 µM)
- MIC (S. faecium MD 86): 0.781 µg/mL (≈ 2.07 µM)
- MIC (E. coli DC 2): 0.781 µg/mL (≈ 2.07 µM)
- MIC (E. coli TEM): 0.391 µg/mL (≈ 1.04 µM)
- MIC (P. aeruginosa 1771): 0.781 µg/mL (≈ 2.07 µM)
- MIC (K. oxytoca 1082E): 0.098 µg/mL (≈ 0.26 µM)
- MIC (P. aeruginosa 1771M): 0.391 µg/mL (≈ 1.04 µM)
- MIC (E. coli DC 0): 3.12 µg/mL (≈ 8.3 µM)
- MIC (S. aureus 503): 0.025 µg/mL (≈ 0.0664 µM)
- MIC (E. coli 1507E): 1.56 µg/mL (≈ 4.15 µM)
- MIC (P. aeruginosa 9027): 1.56 µg/mL (≈ 4.15 µM)
- MIC (S. pyogenes A 77): 0.781 µg/mL (≈ 2.07 µM)
- MIC (P. aeruginosa 1592E): 1.56 µg/mL (≈ 4.15 µM)
- MIC (S. pyogenes A 308): 1.56 µg/mL (≈ 4.15 µM)
- MIC (S. aureus SG 511): 0.025 µg/mL (≈ 0.0664 µM)
- MIC (S. aureus 285): 0.025 µg/mL (≈ 0.0664 µM)
